# Where two headings read alike, the source gives them in different places.
# Tests used:
# [1] = Animals behavior and body weight; format: in vivo, Sprague-Dawley albino male rats; details: etifoxine 12.5-50 mg/kg i.p. once a day D-7 to D0
# Source text: The rats were kept under observation for 3 weeks after their arrival for acclimatization. Meanwhile the animals were observed daily for verifying the absence of a disease.
# II.1. Animals Behavior and Body Weight
# [2] = system: blue light-induced retinal degenerations or damages in rats; assay: Thickness of the outer nuclear layer (histology, AUC) after blue light-induced retinal degeneration; format: in vivo, Sprague-Dawley albino male rats
# Experimental: The inventors have studied the protective effect of etifoxine in respect of the blue light-induced retinal degenerations or damages in rats. This animal model is particularly representative, in addition to light-induced retinal damage, of age-related macular degeneration (AMD) and retinitis pigmentosa (see e.g Feng et al. (2012) International Journal of Ophthalmology 5:151-157).
# (§1) Induction was performed by exposure during 6 hours to a blue fluorescent light of 400 nm-540 nm wavelength in individual cages. The rats were kept in the dark for 36 hours prior to the induction and 24 hours after the induction, before returning to normal lighting conditions.
# After ERG (day 14), the animals were euthanized with an overdose of pentobarbital, according to European recommendations, both eyes were enucleated, fixed with Bouin Hollande solution and then included in paraffin. Sections of 5 to 7 μm of thickness were made along the vertical meridian then stained using Masson's trichrome. The vertical meridian includes the optic nerve. […] The area under the curve (AUC) was then calculated for each retina.
# A one-factor ANOVA test was applied to the average AUCs of the thickness of the outer nuclear layer. The effect of the products was determined using a Turkey's multiple comparison test; each treated group was compared to vehicle group. Differences were considered significant for p values less than 0.05.
# To determine if the treatment allows to preserve the structure of photoreceptors, the thickness of the outer nuclear layer was evaluated 14 days other exposure to blue light. The area under the curve (AUC) of the thickness of the outer nuclear layer was calculated for each eye and both AUCs were averaged for each rat.
# [3] = system: blue light-induced retinal degenerations or damages in rats; assay: Scotopic electroretinogram (amplitude of wave a) after blue light-induced retinal degeneration; format: in vivo, Sprague-Dawley albino male rats
# Experimental: This animal model is particularly representative, in addition to light-induced retinal damage, of age-related macular degeneration (AMD) and retinitis pigmentosa (see e.g Feng et al. (2012) International Journal of Ophthalmology 5:151-157).
# 72 Sprague-Dawley albino male rats obtained from Janvier were used for the study. When received, the rats were approximately 7 weeks old and weighed 180-200 g,
# as §1
# A scotopic electroretinogram (ERG) was performed by using the electrophysiological RETI-animal® (Roland Consult) system before the first administration (base) then on days 7 and 14 on both eyes of animals accustomed to the darkness. The animals were anesthetized with an intramuscular injection of a mixture of ketamine/xylazine. 15 minutes before the measurement, 1 drop of Mydriatictum® (0.5% tropicamide) was instilled to induce dilatation of the pupil. The amplitudes of wave a and wave b were measured for each eye and expressed as a percentage of the base amplitudes.
# The ERG parameters are: • Gansfeld Q450C • Color: maximum white • Maximum intensity: 2.6 cd.s/m^2 (0 dB); duration: 0.24 ms; number of flashes: 1 • Filter: 50 Hz • Impedance threshold: 90 kΩ
# A two-factor ANOVA test was applied to the average amplitudes of the wave a of both eyes for each measurement point. The effect of the products was determined using the Turkey's multiple comparison test; each group was compared to other groups. Differences were considered significant for p values less than 0.05.
# Electroretinograms (ERG) allow to measure the amplitude of wave a, which results from the photo-activated hyperpolarization of photoreceptors. Thus, a reduction of the amplitude of wave a is an indicator of a retinal damage or degeneration associated with exposure to blue light.
# [4] = system: light-induced degeneration of the retina in rats; details: intraperitoneal injection (Ranchon et al. 2001); cited from earlier work
# [5] = system: patients suffering from neovascular (exudative) AMD; details: cited from earlier work
compound,measurement,setting,value
"CCNC1=Nc2ccc(Cl)cc2C(C)(c2ccccc2)O1.Cl (centres unmarked) [EFX, 6-chloro-2-ethylamino-4-methyl-4-phenyl-4H-[3,1]benzoxazine hydrochloride]",Clinical signs after administration,[1],No unexpected clinical signs
same,"Thickness of the outer nuclear layer (AUC, mean of both eyes ± standard deviation)","[2]; EFX 12.5 mg/kg i.p. once a day D-7 to D0, 14 days after induction, p = 0.04 vs vehicle group",170 ± 72 (p = 0.04 comparing to vehicle group) μm × mm
same,"Thickness of the outer nuclear layer (AUC, mean of both eyes ± standard deviation)","[2]; EFX 25 mg/kg i.p. once a day D-7 to D0, 14 days after induction, p = 0.0002 vs vehicle group",200 ± 73 (p = 0.0002 comparing to vehicle group) μm × mm
same,"Thickness of the outer nuclear layer (AUC, mean of both eyes ± standard deviation)","[2]; EFX 50 mg/kg i.p. once a day D-7 to D0, 14 days after induction, p = 0.035 vs vehicle group",172 ± 61 (p = 0.035 comparing to vehicle group) μm × mm
same,"Protection of the outer nuclear layer from damages or degenerations induced by blue light, compared to the vehicle","[2]; regardless of the dose (12.5, 25, 50 mg/kg), 14 days after induction",protects significantly
same,Protection of amplitude of wave a compared to the vehicle group,"[3]; 12.5, 25 and 50 mg/kg, day 7 p<0.0001 all doses, day 14 p=0,016 for 12.5 mg/kg, p<0.0001 for 25 and 50 mg/kg",significant dose-dependent protection
same,"Amplitude of wave a (mean ± standard deviation), Day 7","[3]; EFX 12.5 mg/kg i.p. once a day D-7 to D0, 7 days after induction",136 ± 89 μV
same,"Amplitude of wave a (mean ± standard deviation), Day 14","[3]; EFX 12.5 mg/kg i.p. once a day D-7 to D0, 14 days after induction",134 ± 135 μV
same,"Amplitude of wave a (mean ± standard deviation), Day 7","[3]; EFX 25 mg/kg i.p. once a day D-7 to D0, 7 days after induction",210 ± 116 μV
same,"Amplitude of wave a (mean ± standard deviation), Day 7","[3]; EFX 50 mg/kg i.p. once a day D-7 to D0, 7 days after induction",260 ± 87 μV
"CC(C)(C)[N+]([O-])=Cc1ccccc1 [PBN, Phenyl-N-tert-butylnitrone]",Action in light-induced degeneration of the retina,[4],protective action
same,"Thickness of the outer nuclear layer (AUC, mean of both eyes ± standard deviation)","[2]; PBN 50 mg/kg i.p. at D0 around induction, 14 days after induction, p < 0.0001 vs NaCl 0.9% group",247 ± 44 (p < 0.0001 comparing to NaCl 0.9% group) μm × mm
same,Protection of the outer nuclear layer from damages or degenerations induced by blue light,"[2]; PBN 50 mg/kg, positive control, in contrast to 0.9% NaCl",protects the outer nuclear layer
same,"Amplitude of wave a (mean ± standard deviation), Day 7","[3]; PBN 50 mg/kg i.p. at D0, 0.5 h before, 2 h and 4 h during and just after induction, 7 days after induction",334 ± 137 μV
same,"Average relative amplitude of wave a, Day 7","[3]; PBN 50 mg/kg i.p. at D0 around induction, 7 days after induction, percentage of base amplitude",71 ± 29%
same,"Amplitude of wave a (mean ± standard deviation), Day 14","[3]; PBN 50 mg/kg i.p. at D0 around induction, 14 days after induction",301 ± 187 μV
same,"Average relative amplitude of wave a, Day 14","[3]; PBN 50 mg/kg i.p. at D0 around induction, 14 days after induction, percentage of base amplitude",62 ± 38%
same,Amplitudes of wave a compared to the NaCl 0.9% group,"[3]; PBN 50 mg/kg, days 7 and 14, p<0.0001",significantly (p<0.0001) higher
ranibizumab: a Fab fragment of an anti-VEGF-A monoclonal antibody,Visual acuity improvement,[5]; 0.3 mg monthly intravitreal injections,+8.1 letters
same,Visual acuity improvement,[5]; 0.5 mg monthly intravitreal injections,+10.7 letters

# Reference: patent US9872858B2, “Treatment of degenerations and light-induced damage to the retina” (BIOCODEX, priority 2014, dated 2018)
